We go through 1 compound from patent US10322123B2, “Compound for anti-cancer therapy that acts by targeting GOF mutant P53 and stimulates P73 to restore the P53 pathway signaling” (The Penn State Research Foundation, priority 2014, dated 2019).

For this assay, the target named is mutant p53 (Homo sapiens, UniProt P04637, P309S/R273H). The assay is classed as cell-based. Also noted: Mutant p53 protein levels in mutant p53-expressing cancer cells treated with NSC59984; endogenous in cells; host or cells: SW480, DLD-1, Hop92, RXF393; effect on NSC59984-mediated down-regulation of mutant p53: dose or concentration left out as unconfirmed. The settings on record: SW480 cells, MG132 with NSC59984, 16 hr. Here is the method: The primary antibodies indicated in the figures were incubated with the transferred PVDF in blocking buffer at 4° C. overnight. Antibody binding was detected on PVDF with appropriate IRDye-secondary antibodies (LI-COR Biosciences, USA) by the ODYSSEY infrared imaging system.

Residues, ends and D or L forms follow the SMILES beside them. *: point of attachment. Cbz = O=C(OCc1ccccc1)*

Take `CC(C)C[C@@H](C=O)NC(=O)[C@H](CC(C)C)NC(=O)[C@H](CC(C)C)NC(=O)OCc1ccccc1` [MG132, reference compound] (Cbz-Leu-Leu-Leu-aldehyde): the “effect on NSC59984-mediated down-regulation of mutant p53” value is on record as “rescued”.
